According to ChEMBL document CHEMBL1139125, “N-Benzyl-N-(tetrahydro-2H-pyran-4-yl)pyrrolidin-3-amines as selective dual serotonin/noradrenaline reuptake inhibitors” (Bioorg Med Chem Lett, 2007):

Key:
in vitro [1] = settings: human, liver microsomes
in vitro [2] = settings: human, hepatocytes

| Compound | half-life (in vitro [1]) | half-life (in vitro [2]) |
| --- | --- | --- |
| Cc1cccc(CN(Cc2ccccn2)[C@@H]2CCNC2)c1C | 0.4 h |  |
| Clc1cccc(CN(CC2CC2)[C@H]2CCNC2)c1Cl | > 2 h |  |
| c1ccc(-c2ccccc2CN(C2CCOCC2)[C@H]2CCNC2)cc1 | > 2 h | 1.38 h |
| Clc1cccc(CN(CC2CC2)[C@@H]2CCNC2)c1Cl | > 2 h |  |
| Clc1cccc(CN(Cc2ccccn2)[C@H]2CCNC2)c1Cl | 1.02 h |  |
| Cc1cccc(CN(Cc2ccccn2)[C@H]2CCNC2)c1C | 0.233 h |  |

The next lines start with the values.

| half-life (in vitro [1]) | half-life (in vitro [2]) | Compound |
| --- | --- | --- |
| > 2 h |  | Cc1cccc(CN(C2CCOCC2)[C@@H]2CCNC2)c1C |
| > 2 h | 1.73 h | Cc1c(Cl)cccc1CN(C1CCOCC1)[C@H]1CCNC1 |
| > 2 h |  | FC(F)(F)c1ccccc1CN(C1CCOCC1)[C@H]1CCNC1 |
| > 2 h |  | Cc1ccccc1CN(C1CCOCC1)[C@H]1CCNC1 |
| > 2 h |  | Cc1cccc(CN(C2CCOCC2)[C@H]2CCNC2)c1C |
| > 2 h | 1.18 h | Cc1cccc(CN(C2CCOCC2)[C@H]2CCNC2)c1Cl |
| 1.57 h |  | COc1cccc(CN(C2CCOCC2)[C@H]2CCNC2)c1C |
| > 2 h |  | Fc1cccc(CN(C2CCOCC2)[C@H]2CCNC2)c1C(F)(F)F |
| > 2 h | > 4 h | Cc1c(CN(C2CCOCC2)[C@H]2CCNC2)cccc1C(F)(F)F |
